The test system of series [1] is Canis familiaris. Briefly: Effect on overt behavior in dog assessed as hyperreflexia at 0.05 to 10 mg/kg, iv. Format: organism-based, Canis lupus familiaris. Also on record: dose 0.05-10 mg/kg, route intravenous. The settings on record: in vivo.
In series [2] the test system is Mus musculus. Briefly: Analgesic activity in sc dosed mouse by hot plate test. Format: functional.
For series [3], the system named is Canis familiaris. Briefly: Effect on overt behavior in dog assessed as prostration at 4 to 10 mg/kg, iv. Format: organism-based, Canis lupus familiaris. Also on record: dose 4-10 mg/kg, route intravenous. To be noted: in vivo.
For series [4], the system named is Canis familiaris. Briefly: Effect on overt behavior in dog assessed as static ataxia at 0.05 to 10 mg/kg, iv. Format: ADME, organism-based, Canis lupus familiaris. Also on record: dose 0.05-10 mg/kg, route intravenous. To be noted: in vivo.
Series [5] has as its system Mus musculus. Briefly: Analgesic activity in mouse at 10 mg/kg, sc by tail-flick test. Format: functional, organism-based. Also on record: dose 10 mg/kg. In general terms: In hot-plate and tail-flick tests a longer latency is read as antinociception.
Series [6] has as its system Canis familiaris. Briefly: Effect on overt behavior in dog assessed as depression at 0.05 to 10 mg/kg, iv. Type of series: organism-based, Canis lupus familiaris. Also on record: dose 0.05-10 mg/kg, route intravenous. To be noted: in vivo.
Series [7] is filed under the species Mus musculus. Briefly: Analgesic activity in mouse by tail-flick test relative to morphine. Format: functional.
For series [8], the species on record is Mus musculus. Briefly: animal or person. Type of series: functional. The settings on record: Tail, sc.
Series [9] is filed under the species Mus musculus. Briefly: Analgesic activity in mouse assessed as inhibition of p-phenylquinone-induced writhing relative to morphine. Format: functional. Background: Writhing tests count abdominal constrictions after an irritant is injected.
The subject of series [10] is Mus musculus. Briefly: Analgesic activity in mouse at 20 mg/kg, sc by hot plate test. Format: functional, organism-based. On the set-up: dose 20 mg/kg.
Series [11] deals with Mus musculus. Briefly: Analgesic activity in mouse at 50 mg/kg, sc by hot plate test. On the set-up: dose 50 mg/kg. Type of series: functional, organism-based.

Activity calls are given as the source filed them. The rule behind the calls is not given here.

What is called ED50 is the dose at which the effect has come halfway, by size or by number of responders. Higher therefore signals weaker potency. As to `CCCCCc1cc(O)c2c(c1)OC(C)(C)c1ccc(O)cc1-2`, the Activity result in the series on Canis familiaris [1] is on record as “Non-toxic”; in the series with Canis familiaris [3], “Toxic”; with Canis familiaris [4] it was “Non-toxic”; with Canis familiaris [6], “Toxic”. For the same compound, the median effective dose (ED50) with Mus musculus [2] was 35.6 mg/kg. Also, in the series with Mus musculus [5], the result was inactive.

For the compound `CCCCCc1cc(O)c2c(c1)OC(C)(C)[C@H]1CC[C@H](O)C[C@H]21`, the Activity result in the series on Canis familiaris [3] is “Toxic”.

`CCCCCc1cc(O)c2c(c1)OC(C)(C)[C@@H]1CC[C@H](O)C[C@@H]21`: the Activity entry with Canis familiaris [3] is listed as “Toxic”.

Regarding `CCCCCc1cc(O)c2c(c1)OC(C)(C)[C@@H]1CC[C@@H](O)C[C@@H]21`, the “fold change (FC)” value was 5 in the series filed under Mus musculus [7] and 20 in the series filed under Mus musculus [9]. Also, the ED50 with Mus musculus [2] worked out at 1.6 mg/kg; in the series filed under Mus musculus [8] it was 1 mg/kg. Further, in the series on Canis familiaris [3], the Activity entry is reported as “Toxic”.

On to `CCCCCc1cc(O)c2c3c(c(=O)oc2c1)CCC(O)C3` (racemic), for which the Activity entry in the series with Canis familiaris [1] was “Non-toxic”; in the series with Canis familiaris [3], “Toxic”; in the series on Canis familiaris [4], “Non-toxic”; in the series with Canis familiaris [6] it was “Toxic”. Moreover, the outcome with Mus musculus [10] was inactive.

`CCCCCc1cc(O)c2c(c1)OC(C)(C)C1CCC(O)CC21` (racemic): in the series with Mus musculus [2], the 50% effect level (ED50) was put at a dose of 2.9 mg/kg. Also, the Activity entry with Canis familiaris [3] is recorded as “Toxic”.

Turning to `CCCCCc1cc(O)c2c(c1)OC(C)(C)C1=C2CC(O)CC1` (racemic), the outcome in the series with Mus musculus [11] was inactive. Moreover, the Activity result with Canis familiaris [1], in the series with Canis familiaris [3] and in the series with Canis familiaris [4] was “Toxic” throughout.

In the case of `CCCCCc1cc(O)c2c(c1)OC(C)(C)[C@@H]1CC[C@@H](O)C=C21` (racemic), the outcome in the series on Mus musculus [11] was inactive. The Activity entry with Canis familiaris [1], in the series with Canis familiaris [3] and in the series with Canis familiaris [4] was “Toxic” each time.

`CCCCCc1cc(O)c2c(c1)OC(C)(C)[C@@H]1CCC(C)=C[C@@H]21` [DRONABINOL]: the Activity entry with Canis familiaris [3] is listed as “Toxic”.

`CN1CC[C@]23c4c5ccc(O)c4O[C@H]2[C@@H](O)C=C[C@H]3[C@H]1C5.Cl` [MORPHINE HYDROCHLORIDE] came in with an ED50 in the series with Mus musculus [2] of 1.2 mg/kg.
